Laboratory results: patent US11584756B2, “Heterocyclic compounds as BET inhibitors” (NUVATION BIO INC., priority 2019, dated 2023)

Legend:
[1] = molecular target: BRD4-2 (Homo sapiens (Human), UniProt O60885); test: Bromodomain and Extraterminal Domain (BET) binding assay, BRD4-2; conditions: histone H4 peptide (1-21) K5/8/12/16Ac-biotin ligand; 130 nM protein, 70 nM ligand
Procedure: (§1) The bromodomain binding assays were performed by Reaction Biology Corp., Malvern, Pa., USA (www.reactionbiology.com). The BET binding assays were conducted in 384 well microplates in assay buffer (50 mM HEPES-HCl, pH 7.5, 100 mM NaCl, 1 mg/ml BSA, 0.05% CHAPS, and 0.5% DMSO) with compounds added as DMSO stocks at a single concentration or with 10-point dose response titrations. BET protein or assay buffer were delivered to the appropriate wells of the microplate. Test compound was then delivered by acoustic technology via a Labcyte Echo550 liquid handler. The microplate was centrifuged for 5 min and pre-incubated for 30 min at RT with gentle shaking. The ligand (histone H4 peptide (1-21) K5/8/12/16Ac-biotin) was delivered and the microplate was again centrifuged for 5 min and allowed to incubate for 30 min at RT with gentle shaking. Donor beads were then added in the absence of light and the microplate was centrifuged and gently shaken. After 5 min, acceptor beads were added in the absence of light and the microplate was centrifuged and gently shaken in the dark for 60 min. The microplate was read using a Perkin Elmer EnSpire Alpha plate reader (λ Ex/λ Em=680/520-620 nm). Percent inhibition was calculated relative to positive and negative controls on a per plate basis. For titration experiments, IC50 values were determined by fitting the percent inhibition versus compound concentration.

[2] = molecular target: BRD4-1 (Homo sapiens (Human), UniProt O60885); test: Bromodomain and Extraterminal Domain (BET) binding assay, BRD4-1; conditions: histone H4 peptide (1-21) K5/8/12/16Ac-biotin ligand; 20 nM protein, 20 nM ligand
Procedure: as §1

[3] = tested on: MV-4-11 human acute myeloid leukemia cell line; test: Cell viability assay in MV-4-11 cells (Cell Titer-Glo); assay type: cell-based; conditions: MV4-11, 72 hrs incubation
Procedure: The effects of test compounds were studied in a cell viability assay in the MV-4-11 human acute myeloid leukemia cell line. The cells were harvested during the logarithmic growth period and counted. Cells were seeded at a count of 15000 cells per well/100 μl. After seeding, cells were incubated at 37° C. 5% CO2 for 1 hr. Cells were treated with test compounds at 8 concentrations within a desired concentration range (e.g. 5 nM-10 μM) for generation of dose response curves by preparing serial dilutions of the test compound in DMSO which were further diluted with culture medium and then added to each well. The plate was further incubated for another 72 hrs in a humidified incubator at 37° C. and 5% CO2. The assay was terminated by addition of Cell Titer-Glo reagent (Promega, Madison, Wis.) at ¼ the volume of total medium per well. Contents were mixed, the plate was incubated for 10 min at room temperature and luminescence was measured. Cell viability data were plotted using GraphPad Prism (GraphPad Software, Inc., San Diego, Calif.). In addition, a nonlinear regression model with a sigmoidal dose response and variable slope within GraphPad Prism was used to calculate the IC50 value of individual test compounds.

Compound | IC50 [1] | IC50 [2] | IC50 [3]
Cn1cc(-c2cc(C(C)(C)O)ccc2Oc2ccc(F)cc2F)c2cc(C(=O)NC3(C(F)(F)F)CC3)sc2c1=O [Compound 14, 4-(2-(2,4-difluorophenoxy)-5-(2-hydroxypropan-2-yl)phenyl)-6-methyl-7-oxo-N-(1-(trifluoromethyl)cyclopropyl)-6,7-dihydrothieno[2,3-c]pyridine-2-carboxamide] | 0.047 µM | 1.17 µM | 0.768 µM
CCS(=O)(=O)Nc1ccc(Oc2ccc(F)cc2F)c(-c2cn(C)c(=O)c3ccsc23)c1 [Compound 2.91, N-(4-(2,4-difluorophenoxy)-3-(5-methyl-4-oxo-4,5-dihydrothieno [3,2-c]pyridin-7-yl)phenyl)ethanesulfonamide] | 0.0073 µM | 0.015 µM | –
CCS(=O)(=O)Nc1ccc(Oc2c(C)cc(F)cc2C)c(-c2cn(C)c(=O)c3sc(-c4nc5ccccc5[nH]4)cc23)c1 [Compound 157, N-(3-(2-(1H-benzo[d]imidazol-2-yl)-6-methyl-7-oxo-6,7-dihydrothieno[2,3-c]pyridin-4-yl)-4-(4-fluoro-2,6-dimethylphenoxy)phenyl)ethane sulfonamide] | 0.145 µM | > 10 µM | 0.55 µM
Cn1cc(-c2cc(C(C)(C)O)ccc2Oc2ccc(F)cc2F)c2cc(CN3CCCCC3)sc2c1=O [Compound 7, 4-(2-(2,4-difluorophenoxy)-5-(2-hydroxypropan-2-yl)phenyl)-6-methyl-2-(piperidin-1-ylmethyl)thieno[2,3-c]pyridin-7(6H)-one] | 0.497 µM | – | 2.48 µM
Cc1nnc(-c2cc3c(-c4cc(C(C)(C)O)ccc4Oc4ccc(F)cc4F)cn(C)c(=O)c3s2)o1 [Compound 12, 4-(2-(2,4-difluorophenoxy)-5-(2-hydroxypropan-2-yl)phenyl)-6-methyl-2-(5-methyl-1,3,4-oxadiazol-2-yl)thieno[2,3-c]pyridin-7(6H)-one] | 0.0125 µM | 0.017 µM | 0.074 µM
Cn1cc(-c2cc(C(C)(C)O)ccc2Oc2ccc(F)cc2F)c2cc(C(=O)N3CCC(F)(F)CC3)sc2c1=O [Compound 22, 4-(2-(2,4-difluorophenoxy)-5-(2-hydroxypropan-2-yl)phenyl)-2-(4,4-difluoropiperidine-1-carbonyl)-6-methylthieno[2,3-c]pyridin-7(6H)-one] | 0.011 µM | 0.638 µM | 1.41 µM
CCS(=O)(=O)Nc1ccc(Oc2ccc(F)cc2F)c(-c2cn(C)c(=O)c3sc(-c4nc5ccccc5o4)cc23)c1 [Compound 158, N-(3-(2-(benzo[d]oxazol-2-yl)-6-methyl-7-oxo-6,7-dihydrothieno[2,3-c]pyridin-4-yl)-4-(2,4-difluorophenoxy)phenyl)ethanesulfonamide] | 0.196 µM | 0.103 µM | 0.56 µM
Cn1cc(-c2cc(C(C)(C)O)ccc2Oc2ccc(F)cc2F)c2sccc2c1=O [Compound 2.3, 7-(2-(2,4-difluorophenoxy)-5-(2-hydroxypropan-2-yl)phenyl)-5-methylthieno[3,2-c]pyridin-4(5H)-one] | 0.0285 µM | 0.118 µM | 0.163 µM

More lines, now with the values ahead:

IC50 [1] | IC50 [2] | IC50 [3] | Compound
0.018 µM | 0.744 µM | 0.597 µM | Cn1cc(-c2cc(C(C)(C)O)ccc2Oc2ccc(F)cc2F)c2cc(C(=O)NCC(F)(F)F)sc2c1=O [Compound 5, 4-(2-(2,4-difluorophenoxy)-5-(2-hydroxypropan-2-yl)phenyl)-6-methyl-7-oxo-N-(2,2,2-trifluoroethyl)-6,7-dihydrothieno[2,3-c]pyridine-2-carboxamide]
0.017 µM | 0.265 µM | 0.879 µM | Cn1cc(-c2cc(C(C)(C)O)ccc2Oc2ccc(F)cc2F)c2cc(C(=O)N3CCC(F)(F)C3)sc2c1=O [Compound 76, 4-(2-(2,4-difluorophenoxy)-5-(2-hydroxypropan-2-yl)phenyl)-2-(3,3-difluoropyrrolidin-1-carbonyl)-6-methylthieno[2,3-c]pyridin-7(6H)-one]
4.07 µM | > 10 µM | – | CCN(CC)C(=O)c1cc2c(-c3cc(C(C)(C)O)ccc3Oc3c(C)cc(F)cc3C)cn(C)c(=O)c2s1 [Compound 155, N,N-diethyl-4-(2-(4-fluoro-2,6-dimethylphenoxy)-5-(2-hydroxypropan-2-yl)phenyl)-6-methyl-7-oxo-6,7-dihydrothieno[2,3-c]pyridine-2-carboxamide]
0.103 µM | > 10 µM | 1.5 µM | Cc1cc(F)cc(C)c1Oc1ccc(C(C)(C)O)cc1-c1cn(C)c(=O)c2sc(C(=O)NCc3ccccc3)cc12 [Compound 149, N-benzyl-4-(2-(4-fluoro-2,6-dimethylphenoxy)-5-(2-hydroxypropan-2-yl)phenyl)-6-methyl-7-oxo-6,7-dihydrothieno[2,3-c]pyridine-2-carboxamide]
0.032 µM | 1.49 µM | 1.79 µM | Cn1cc(-c2cc(C(C)(C)O)ccc2Oc2ccc(F)cc2F)c2cc(C(=O)N3CCCCC3)sc2c1=O [Compound 6, 4-(2-(2,4-difluorophenoxy)-5-(2-hydroxypropan-2-yl)phenyl)-6-methyl-2-(piperidine-1-carbonyl)thieno[2,3-c]pyridin-7(6H)-one]
0.74 µM | > 10 µM | – | C=C(C)c1ccc(Oc2c(C)cc(F)cc2C)c(-c2cn(C)c(=O)c3cc(C(=O)NCC)sc23)c1 [Compound 156, N-ethyl-7-(2-(4-fluoro-2,6-dimethylphenoxy)-5-(prop-1-en-2-yl)phenyl)-5-methyl-4-oxo-4,5-dihydrothieno[3,2-c]pyridine-2-carboxamide]
0.284 µM | > 10 µM | 2.89 µM | Cc1cc(F)cc(C)c1Oc1ccc(C(C)(C)O)cc1-c1cn(C)c(=O)c2sc(-c3nc4ccccc4[nH]3)cc12 [Compound 154, 2-(1H-benzo[d]imidazol-2-yl)-4-(2-(4-fluoro-2,6-dimethylphenoxy)-5-(2-hydroxypropan-2-yl)phenyl)-6-methylthieno[2,3-c]pyridin-7(6H)-one]
0.0012 µM | 3.6 µM | 0.193 µM | CNC(=O)c1cc2c(-c3cc(C(C)(C)O)ccc3Oc3c(C)cc(F)cc3C)cn(C)c(=O)c2s1 [Compound 150, 4-(2-(4-fluoro-2,6-dimethylphenoxy)-5-(2-hydroxypropan-2-yl)phenyl)-N,6-dimethyl-7-oxo-6,7-dihydrothieno[2,3-c]pyridine-2-carboxamide]
0.009 µM | 1.49 µM | 0.536 µM | Cc1nnc(-c2cc3c(-c4cc(C(C)(C)O)ccc4Oc4c(C)cc(F)cc4C)cn(C)c(=O)c3s2)[nH]1 [Compound 152, 4-(2-(4-fluoro-2,6-dimethylphenoxy)-5-(2-hydroxypropan-2-yl)phenyl)-6-methyl-2-(5-methyl-4H-1,2,4-triazol-3-yl)thieno[2,3-c]pyridin-7(6H)-one]
0.0032 µM | 9.38 µM | 0.282 µM | Cc1cc(F)cc(C)c1Oc1ccc(C(C)(C)O)cc1-c1cn(C)c(=O)c2sc(C(=O)Nc3ccccc3)cc12 [Compound 151, 4-(2-(4-fluoro-2,6-dimethylphenoxy)-5-(2-hydroxypropan-2-yl)phenyl)-6-methyl-7-oxo-N-phenyl-6,7-dihydrothieno[2,3-c]pyridine-2-carboxamide]
0.0017 µM | 0.018 µM | – | CCNC(=O)c1cc2c(=O)n(C)cc(-c3cc(C(C)(C)O)ccc3Oc3ccc(F)cc3F)c2s1 [Compound 159, 7-(2-(2,4-difluorophenoxy)-5-(2-hydroxypropan-2-yl)phenyl)-N-ethyl-5-methyl-4-oxo-4,5-dihydrothieno[3,2-c]pyridine-2-carboxamide]
0.526 µM | > 10 µM | 3.83 µM | Cc1cc(F)cc(C)c1Oc1ccc(C(C)(C)O)cc1-c1cn(C)c(=O)c2sc(-c3nc4ccccc4o3)cc12 [Compound 153, 2-(benzo[d]oxazol-2-yl)-4-(2-(4-fluoro-2,6-dimethylphenoxy)-5-(2-hydroxypropan-2-yl)phenyl)-6-methylthieno[2,3-c]pyridin-7(6H)-one]
0.103 µM | > 10 µM | 1.28 µM | C=C(C)c1ccc(Oc2c(C)cc(F)cc2C)c(-c2cn(C)c(=O)c3sc(C(=O)NCC)cc23)c1 [Compound 148, N-ethyl-4-(2-(4-fluoro-2,6-dimethylphenoxy)-5-(prop-1-en-2-yl)phenyl)-6-methyl-7-oxo-6,7-dihydrothieno[2,3-c]pyridine-2-carboxamide]
